# Data published in USRE29359E, “Bronchodilator expectorant composition containing theophylline and a guaiacol” (priority 1976, dated 1977).
# Where two headings read alike, the source gives them in different places.
# Columns and labels:
# [1] = cited from earlier work
# [2] = Sucrose as supplementary solubilizing agent, crystallization after 3 days (Example 5)
# Protocol: Solutions containing varying quantities of theophylline, glyceryl guaiacolate, and sucrose according to the figures arranged in the following table are prepared. The ingredients are warmed to about 60° C. to effect solution and the solutions are then kept at room temperature to observe whether crystallization occurs. Sucrose is taken as representative of the total of all other water soluble pharmaceutically acceptable ingredients that may be used in formulating the present compositions for the purposes of this experiment. It is apparent, of course, that the actual weight of flavors, colors, and other ingredients that will ordinarily be used for the purpose of creating pharmaceutical elegance will be relatively minor and that sucrose or equivalent material such as corn syrup or sorbitol is the only ingredient of this type which will ordinarily be used in substantial quantity.
# (§1) (1) per 100 ml. of solution.
# (§2) (2) per 100 ml. of water in solution.
# *Appearance of duplicate samples after being stored separately at
# 26° C. and at 0° C. for 3 days.
# [3] = Solubility of theophylline in water with glyceryl guaiacolate, crystallization after 3 days (Example 1); assay type: physicochemical; conditions: for Result (appearance after storage): 3 days
# Protocol: Varying quantities of theophylline and glyceryl guaiacolate are mixed and warmed with sufficient water to provide 100 ml. of solution. The solutions are cooled, adjusted to 100 ml. volume, and kept for 3 days to allow crystallization to take place. The specific gravities of the fresh solutions are measured, and the amount of water contained in 100 ml. of solution calculated. Two identical tubes of each composition are prepared. One is kept at room temperature (25° C.) and the other at 0° C.
# A larger quantity of theophylline, 1.0 g./100 ml., will, however, dissolve when 0.75 g. of glyceryl guaiacolate per 100 ml. is also present in solution. Up to 4.0 g. of theophylline per 100 ml. of solution is soluble at room temperature when 7.0 g. of glyceryl guaiacolate per 100 ml. of solution is employed.
# as §1, §2
# [4] = Guaiacol as solubilizing agent for theophylline in water (Example 2); assay type: physicochemical
# Protocol: In order to test the effectiveness of guaiacol as a solubilizing agent for theophylline in water, an experiment corresponding to the last entry in the table accompanying Example 1 is conducted. Theophylline, 4.0 g., and guaiacol, 4.39 g. […] A haze forms as the result of liquefaction of the guaiacol without complete solution thereof.
# This amount will solubilize up to and including 4.25 g. of theophylline per 100 ml. of water in the composition. For lower theophylline concentrations, proportionately less guaiacol may be used, 0.47 g. thereof per 100 ml. being sufficient to solubilize 0.85 g. of theophylline per 100 ml.
# [5] = accepted by the art; cited from earlier work
# [6] = cited from earlier work; remark: listed apart in the source
# [7] = Solubility in water or ethanol (statements in the description)
# [8] = cited from earlier work; remark: listed apart in the source
structure (smiles),measurement,setting,value
COc1ccccc1OC1(O)C(=O)NC(=O)NC1=O [hemiacetal condensation product of guaiacol and alloxan],water solubility,[1],≥ 1.7 g./100 ml.
COc1ccccc1OCC(O)CO (stereo not drawn) [glyceryl guaiacolate],glyceryl guaiacolate per 100 ml. of water in composition,[2],8.7 g. per 100 ml. of water
same,glyceryl guaiacolate upper concentration limit with sucrose,"[2]; water, 72 h",≥ 8.7 g. per 100 ml. of water
same,concentration of saturated solution in water,[1]; 25 °C,5 g./100 ml.
same,water solubility,[1],≥ 1.7 g./100 ml.
Cn1c(=O)c2[nH]cnc2n(C)c1=O [theophylline],crystallization at ice temperature,"[3]; 4.0 g theophylline, 7.0 g glyceryl guaiacolate per 100 ml. solution","Crystallization at ice temperature does, however, occur"
same,crystallization at ice temperature,"[3]; 4.37 g theophylline, 7.64 g glyceryl guaiacolate per 100 ml. water",Slight crystallization
same,theophylline soluble per 100 ml. of solution,"[3]; glyceryl guaiacolate 7.0 g. per 100 ml. of solution, room temperature, 4320 min",Up to 4.0 g. per 100 ml. of solution
same,Result (appearance after storage),"[3]; theophylline 0.83 g, glyceryl guaiacolate 0 per 100 ml solution, 25 °C",Clear Solution
same,Result (appearance after storage),"[3]; theophylline 0.85 g, glyceryl guaiacolate 0 per 100 ml solution, 0 °C",Crystals formed.
same,Result (appearance after storage),"[3]; theophylline 1.00 g, glyceryl guaiacolate 0.75 g per 100 ml solution, 25 °C",Solution clear.
same,Result (appearance after storage),"[3]; theophylline 3.50 g, glyceryl guaiacolate 4.00 g per 100 ml solution, 0 °C",Crystals formed.
same,Result (appearance after storage),"[3]; theophylline 3.50 g, glyceryl guaiacolate 5.00 g per 100 ml solution, 25 °C",Clear solution.
same,Result (appearance after storage),"[3]; theophylline 4.00 g, glyceryl guaiacolate 7.00 g per 100 ml solution, 0 °C",Crystals formed.
same,Result (appearance after storage),"[3]; theophylline 4.00 g, glyceryl guaiacolate 7.00 g per 100 ml solution, 25 °C",Clear solution.
same,solubility,"[3]; water, no glyceryl guaiacolate, read-out: normal solubility of theophylline (exceeded by)",< 8.5 mg/mL
same,theophylline solubilized by guaiacol,[4]; guaiacol 0.47 g. per 100 ml.,0.85 g. per 100 ml.
same,theophylline solubilized per 100 ml. of water,"[4]; guaiacol about 4.05 g. per 100 ml. water, 4320 min",≤ 4.25 g. per 100 ml. of water
same,theophylline per 100 ml. of water in composition,[2],4.4 g. per 100 ml. of water
same,solubility at 72 h,[2]; water,≥ 44 mg/mL
same,therapeutic blood concentration,[5],5 µg/mL
same,solubility in ethanol,[1]; published figure,1.25 g./100 ml.
same,pain on intramuscular injection,[6]; intramuscular,painful
same,absorption pattern,[6]; oral,irregular absorption pattern
same,gastrointestinal side effects,[6]; oral,"frequently results in abdominal discomfort, nausea, and vomiting"
same,concentration in aqueous solution with guaiacol or water soluble forms thereof,[7]; solubilized by guaiacol and water soluble forms,≤ 4.0 g./100 ml.
same,effect of water soluble ingredients on theophylline solubility,"[7]; sucrose, sorbitol, glycerol, ethanol, solubilized by guaiacol and its derivatives",do not tend to diminish the solubility of the theophylline significantly
same,solubility,[7]; water,80 mg/mL
COc1cc(S(=O)(=O)[O-])ccc1O.O.[K+] [potassium guaiacol sulfonate],crystallization on storage,"potassium guaiacol sulfonate 4.28 g, theophylline 1.5 g per 100 ml., ice temperature",Slight crystallization occurs
same,appearance of solution,"potassium guaiacol sulfonate 4.28 g, theophylline 1.5 g per 100 ml., room temperature",clear solution
same,crystallization on storage,"potassium guaiacol sulfonate 4.28 g, theophylline 2 g per 100 ml., 0 °C",Crystallization from this solution occurs
same,separation of solid on storage,"potassium guaiacol sulfonate 4.28 g, theophylline 2 g per 100 ml., room temperature",only very slight separation of solid material occurs
same,crystallization on storage,"potassium guaiacol sulfonate 8.56 g, theophylline 4.0 g in 100 ml., 0 °C",Crystallization from this solution occurs
same,crystallization on storage,"potassium guaiacol sulfonate 8.56 g, theophylline 4.0 g in 100 ml., room temperature",Crystallization from this solution occurs
same,water solubility,[1],≥ 1.7 g./100 ml.
Cn1c(=O)c2[nH]cnc2n(C)c1=O [aminophylline],precipitation under acidic conditions,[8]; acidic conditions such as occur in the stomach,precipitation often occurs
same,solubility in alkaline solution,[8]; in excess of pH 8.0,relatively high solubilities in alkaline solution
COc1ccccc1O [guaiacol],specific gravity of solution,"[4]; guaiacol 3.8 g, theophylline 4.0 g",~1.016
same,crystallization on storage,"[4]; guaiacol 3.8 g, 3 days, room temperature or 0 °C",no crystals separate
same,useful upper guaiacol solubility ratio,"[4]; room temperature or 0 °C, 4320 min",about 4.05 g. per 100 ml. of water
same,appearance of solution,"[4]; theophylline 4.0 g, guaiacol 3.8 g",clear solution
same,appearance of solution,"[4]; theophylline 4.0 g, guaiacol 4.39 g",A haze forms
same,guaiacol dissolved in 100 ml. of water,[4]; with 4.37 g. theophylline,4.05 g
same,concentration of saturated solution in water,"[1]; room temperature, absence of other solutes",1.7 g./100 ml.
same,water solubility,[1],≥ 1.7 g./100 ml.
